Tests used:
[1] = tested on: glycosaminoglycan (GAG) synthesis; assay: Subcutaneous stainless steel chamber implant model: glycosaminoglycan (GAG) content measured as uronic acid (UA); type: in vivo, rat
From the text: (§1) The subcutaneous implantation of stainless steel chambers in rats provides a model for studying the synthesis of extracellular matrix components (collagen and glycosaminoglycan) by providing a recoverable site of new matrix synthesis. The assay involves implanting in each rat, two cylindrical stainless steel chambers (1 cm in diameter×2.5 cm long, 312 SS, 20 mesh, with Teflon end caps), one on each side of the rats' dorsal midline. After allowing for encapsulation of the chambers, both chambers on each rat were injected with 0.2 ml of a solution containing the representative soft tissue filler or saline on day 4 after implantation, and the test peptide copper compound (or saline alone as a control) on days 6, 8, 11, 13, 15, 16, and 18. Chambers were removed from the animals on day 30 after implantation for biochemical analysis.
The chambers were also analyzed for glycosaminoglycan content, another component of the extracellular matrix or skin. Glycosaminoglycan (“GAG”) content was determined by quantifying the amount of uronic acid (“UA”), a carbohydrate component specific for GAGs. UA was determined by a colorimetric assay, as described using 2-hydroxydiphenyl as a reagent (see, e.g., Vilim, V., “Colorimetric Estimation of Uronic Acids using 2-hydroxydiphenyl as a Reagent,” Biomed. Biochim. Acta. 44 11/12 s: 1717-1720, 1985). GAG content was expressed as μg of UA per chamber.
(§2) In this example, hydroxypropyl methyl cellulose was used as the soft tissue filler. A dose of 6 milligrams of the hydroxypropyl methyl cellulose, as a gel, was injected into each of the chambers. Injections of saline served as controls.
(§3) Glycyl-L-histidyl-L-lysine:copper(II) (“GHK-Cu”), was used as the peptide copper complex used. The GHK-Cu was prepared at a molar ratio of 2 moles of peptide to one mole of copper(II), and dissolved in a saline solution at a concentration of 10 milligrams/milliliter. A dose of […] of GHK-Cu was injected for each day of treatment.
(§4) The stimulation of collagen and GAG synthesis by injection of various peptide copper complexes has been determined by methods described in Example 1. The peptide copper complexes used were L-alanyl-L-histidyl-L-lysine:copper(II) (“AHK-Cu”), prepared at a molar ratio of 1 mole of peptide to one mole of copper(II), and glycyl-L-histidyl-L-lysyl-L-valyl-L-phenylalanyl-L-valine:copper(II) (“GHKVFV-Cu”), prepared at a molar ratio of 2 moles of peptide to one mole of copper(II). The peptide copper complexes were dissolved in a saline solution at a concentration of 10 milligrams/milliliter. A dose of 2.4 micromoles of peptide copper complex was injected on each treatment day.

collagen synthesis = assay: Subcutaneous stainless steel chamber implant model: collagen content measured as hydroxyproline (HYP); type: in vivo, rat
From the text: as §1
The chambers were lyophylized and the interior contents removed for biochemical analysis. The biochemical parameters examined include collagen content, the latter being measured as a hydroxyproline (“HYP”) content. The latter, an amino acid specific for collagen, was measured after acid hydrolysis and using a colormetric assay for HYP (see e.g., Bergman, I and Loxley, R., “The Determination of Hydroxyproline in Urine Hydrolysates,” Clin. Chim. Acta. 27: 347-349, 1970). Collagen content was expressed as μg of HYP per chamber or per milligram of protein.
as §2, §3, §4
The stimulation of collagen synthesis by injection of various peptide copper complexes has been determined by methods described in Examples 1 and 2. […]

[2] = Example 2, 2.4 micromoles of peptide copper complex per treatment day, saline control 60 ± 5
[3] = Example 3, 0.6 mg of peptide copper complex per treatment day, saline control 1838 ± 636

Substance	μg Uronic Acid/Chamber Mean ± SEM [1, 2]	μg HYP/Chamber Mean ± SEM (collagen synthesis; [3])	other results
glycyl-L-histidyl-L-lysyl-L-valyl-L-phenylalanyl-L-valine:copper(II) [GHKVFV-Cu]	79 ± 9 μg Uronic Acid/Chamber		
Glycyl-L-histidyl-L-lysine:copper(II) [GHK-Cu]			μg HYP/Chamber Mean ± SEM (collagen synthesis; Example 1, GHK-Cu 0.2 mg per treatment day in combination with soft tissue filler HPMC 6 mg on day 4, chambers removed day 30, saline control 1222 ± 111): 3423 ± 341 μg HYP/Chamber; μg HYP/Chamber Mean ± SEM (collagen synthesis; Example 1, agent alone (GHK-Cu 0.2 mg per treatment day on days 6-18, or HPMC gel 6 mg on day 4), chambers removed day 30, saline control 1222 ± 111): 4226 ± 265 μg HYP/Chamber; μg Uronic Acid/Chamber Mean ± SEM ([1]; Example 1, GHK-Cu 0.2 mg per treatment day in combination with soft tissue filler HPMC 6 mg on day 4, chambers removed day 30, saline control 46.3 ± 5.8): 88.1 ± 5.6 μg Uronic Acid/Chamber; μg Uronic Acid/Chamber Mean ± SEM ([1]; Example 1, agent alone (GHK-Cu 0.2 mg per treatment day on days 6-18, or HPMC gel 6 mg on day 4), chambers removed day 30, saline control 46.3 ± 5.8): 117.3 ± 12.9 μg Uronic Acid/Chamber
glycyl-L-histidyl-L-leucine:copper(II) [GHL-Cu]		3619 ± 754 μg HYP/Chamber	
glycyl-L-histidyl-L-leucine methyl ester:copper(II) [GHL-Me-Cu]		3357 ± 863 μg HYP/Chamber	
L-alanyl-L-histidyl-L-lysine:copper(II) [AHK-Cu]	105 ± 21 μg Uronic Acid/Chamber		
